Entries after “also recorded” stand apart in the source; their conditions may differ. Where two headings read alike, the source gives them in different places.
Columns and labels:
HCT-116 = assay: Cytotoxicity by SRB assay in HCT-116 cells; format: cell-based, human
Procedure: (§1) The fraction of cell survival was calculated as follows. Survival fraction=(OD treated−blank)/(OD control−blank). […] Each experiment was repeated three times.

[1] = Stability and drug release in GSH (RP-HPLC); format: in vitro ADME
Procedure: […] After incubation for the indicated time, samples were centrifuged to collect the clear supernatant and stored at −30° C. until analysis. RP-HPLC injections were carried out at the specified conditions, and the area of peak was integrated for further calculation.

HT-29 = assay: Cytotoxicity by SRB assay in HT-29 cells
Procedure: Cancer cell lines were obtained from ATCC unless otherwise noted. HT-29 and HCT-116 cells were cultured in Dulbecco's Modified Eagle Medium (DMEM, Thermo Fisher Scientific) with 10% fetal bovine serum (FBS, Thermo Fisher Scientific) and 1% antibiotic-antimycotic (Thermo Fisher Scientific).
Briefly, CRC cells were seeded at a density of 5×10^3 cells/well in 96-well microtiter plates (100 μL/well), separated into two groups with or without GSH. After incubation for 24 hours, the culture medium was replaced by fresh medium (100 μL). […] After incubation, 10% cold trichloroacetic acid was gently added to each well and incubated at 4° C. for 1 h. The medium was removed, carefully washed with water, and dried at room temperature. […] The optical density (O.D.) was measured at 510 nm with Multi-Mode Microplate Reader (SpectraMax Paradigm, Beckman Coulter, U.S.). The fraction of cell survival was calculated as follows. Survival fraction=(OD treated−blank)/(OD control−blank). […] Each experiment was repeated three times.

[2] = tested on: orthotopic CRC mice model; assay: Orthotopic AOM/DSS-induced CRC mice model, tumor area; format: in vivo, BALB/c mice
Procedure: Azoxymethane (AOM)-induced murine CRC model was applied to model human CRC. BALB/c mice (6 weeks of age, male) were intraperitoneally (i.p.) injected once every two weeks with AOM (10 mg/kg body weight) or the PBS vehicle. Seven days after each AOM injection, 2% dextran sulfate sodium (DSS) was given in the drinking water for four days, followed by 3 days of regular water. This cycle was repeated three times. The mice were randomly divided into eight groups (n=5), on day 60 after the first AOM treatment. […] Tumor volumes and body weights were recorded at sacrifice. The tumors were counted under a dissecting microscope, and the area covered by tumors was measured by imaging software (AxioVision LE 4.8.2.0).

NHDF = assay: Cytotoxicity by SRB assay in low GLUT-1 normal cell line NHDF; format: cell-based; settings: Homo sapiens, low expression GLUT-1 normal cell line
Procedure: as §1

[3] = Plasma pharmacokinetics in mice (UPLC-MS/MS); format: in vivo, BALB/c mice
Procedure: (§2) In the following PK experiments, BALB/c mice (six weeks of age, male) were randomly divided into two groups (n=3). […] Blood samples were collected via femoral vein by syringes at 0, 1, 3, 5, 10, 15, 30, 45 min, 1, 2, 4, and 24 h after drug administration. 50 μL blood samples were collected into 100 μL extraction solvent (EtOAc/MeOH=1:1) and vortex for 30 sec. The supernatants were separated from the mixture by centrifugation at 10,000 rpm for 10 min and frozen at −30° C. pending UPLC-MS/MS analysis. For bio-distribution experiments, the entire dissected organs were placed into round-bottom after weighting, two-milliliter microcentrifuge tubes with 1 mL of extraction solvent (EtOAc/MeOH=1:1) and 7 mm stainless steel beads, then homogenized for 30 min. All of the containers were maintained at 4° C. throughout the process. The supernatants were separated from the mixture by centrifugation at 10,000 rpm for 10 min and frozen at −30° C. The 200 μL solvent from crude organ suspensions was removed by the dryer and then dissolved in 50 μL extraction solvent. All samples were stored at −30° C. and analyzed within 24 h. All of the samples were filtered through 0.22 μm PTFE membranes into 12×32 mm vials for UPLC-MS/MS analyses using 5-FU-^15N2 as a marker. Pharmacokinetic parameters were calculated using the WinNonlin Software (version 5.2, Pharsight, MO, USA.)
(§3) Analyses were performed on an ACQUITY UPLC I-Class/Xevo TQ-XS IVD System (Waters, Milford, MA, USA) from College of Public Health, National Taiwan University. The reverse phase BEH C18 (100 mm×2.1 mm, 1.7 μm, Waters) and VanGuard BEH C18 (5 mm×2.1 mm, 1.7 μm, Waters) precolumns were used to separate the analytes. All data were acquired by MassLynx V4.2. The mobile phase consisted of a 10 mM aqueous solution of ammonium acetate (A) and acetonitrile (B), set as follows: 0.00 min 98% A→1.00 min 98% A→3.00 min 10% A→4.50 min 10% A→4.60 min 98% A→6.00 min 98% A; at a rate of 0.5 mL/min for 6.00 min with 4 μL per injection. The column oven was maintained at 60° C. Multiple reaction monitoring (MRM) method was applied in quantification. Mass spectrometer parameters were as follows: capillary voltage, 3.0 kV/3.0 kV, respectively, for positive/negative ion mode; ion source temperature, 120° C.; desolvation temperature, 450° C.; cone gas flow (N2), 50 L/h; desolvation gas flow (N2), 700 L/h; multiplier, 650 V; and collision gas pressure (Ar), 3−4×10^−3 mbar.

[4] = Organ biodistribution in mice (UPLC-MS/MS); format: in vivo, BALB/c mice; settings: 1 hour post i.p. injection
Procedure: as §2
as §3, with “Mass spectrometer parameters were as follows: capillary voltage, 3.0 kV/3.0 kV, respectively, for positive/negative ion mode; ion source temperature, 120° C.; desolvation temperature, 450° C.; cone gas flow (N2), 50 L/h; desolvation gas flow (N2), 700 L/h; multiplier, 650 V; and collision gas pressure (Ar), 3−4×10^−3 mbar.” left out

[5] = Body weight changes in the CRC mice model; format: in vivo, BALB/c mice; settings: during treatment in CRC mice model
Procedure: Azoxymethane (AOM)-induced murine CRC model was applied to model human CRC. BALB/c mice (6 weeks of age, male) were intraperitoneally (i.p.) injected once every two weeks with AOM (10 mg/kg body weight) or the PBS vehicle. Seven days after each AOM injection, 2% dextran sulfate sodium (DSS) was given in the drinking water for four days, followed by 3 days of regular water. This cycle was repeated three times. The mice were randomly divided into eight groups (n=5), on day 60 after the first AOM treatment. […] Irinotecan (20 mg/kg), compound 31 (20 mg/kg), and irinotecan+compound 17 (20 mg/kg of irinotecan and 14 mg/kg of compound 17) were injected i.p. q.o.d for two weeks. […] Tumor volumes and body weights were recorded at sacrifice. The tumors were counted under a dissecting microscope, and the area covered by tumors was measured by imaging software (AxioVision LE 4.8.2.0).

[6] = Human plasma stability (RP-HPLC); format: in vitro ADME; settings: 95% human plasma, 37° C.
Procedure: To access human plasma stability, synthesized conjugates were prepared in 95% human plasma. […] The mixture was centrifuged at 13,000 rpm for 5 min. […] For compounds 30 and 31, they were dissolved in DMA and added GSH (11.2 mM or 11.2 μM) solution which was prepared in sodium acetate buffer (10 mM, pH 5.0) in the ratio of 50/40 (v/v, drug in DMA/GSH solution) for final GSH of 5 mM or 5 μM in pH 7.0, respectively. After incubation for the indicated time, samples were centrifuged to collect the clear supernatant and stored at −30° C. until analysis. RP-HPLC injections were carried out at the specified conditions, and the area of peak was integrated for further calculation.

[7] = tested on: CRC cell lines HCT-116 and HT-29; assay: Cytotoxicity against CRC cell lines, summary over both lines (SRB assay); format: cell-based, human; settings: for cytotoxicity against CRC cell lines, in words: HCT-116 and HT-29, with or without GSH
Procedure: as §1

[8] = tested on: metastatic colorectal cancer; settings: phase II, single-agent, patients resistant to fluorouracil; cited from earlier work
pH stability analysis = format: physicochemical
[9] = Homo sapiens, HCT-116, 48 h, w/o GSH, read-out: IC50 HCT-116 w/o GSH
[10] = Homo sapiens, HT-29, 48 h, read-out: IC50 HT-29 5 mM GSH
[11] = Homo sapiens, HT-29, 48 h, read-out: IC50 HT-29 w/o GSH

O=C(CCCSSCCOCCOCCOc1cc(O)c(C(=O)CCc2ccc(O)cc2)c(O)c1)OCn1cc(F)c(=O)[nH]c1=O [Compound 7, (5-Fluoro-2,4-dioxo-3,4-dihydropyrimidin-1(2H)-yl)methyl 4-((2-(2-(2-(3,5-dihydroxy-4-(3-(4-hydroxyphenyl)propanoyl)phenoxy)ethoxy)ethoxy)ethyl)disulfanyl)butanoate]
IC50 (HCT-116; Homo sapiens, HCT-116, read-out: IC50 HCT-116 5 mM GSH, 48 h, 5 mM GSH): 10.5 µM
IC50 (HCT-116; [9]): 21.2 ± 1.69 µM
degradation after 48 h ([1]; 5 μM GSH, 48 h): 30%
cleavage percentage after 4 hours ([1]; 1 mM GSH): ~10%
cleavage percentage after 4 hours ([1]; 5 mM GSH): up to 60%
half-life at 2.5 mM ([1]; PBS containing 1 mM GSH, pH 7.4, half-life at 1 mM GSH, 1 mM GSH, PBS pH 7.4): 10.3 h
half-life at 2.5 mM ([1]; PBS containing GSH, pH 7.4, highly reductive environments, read-out: half-lives in highly reductive environments): < 5 h
IC50 (HT-29; [10]): 3.8 µM
IC50 (HT-29; [11]): 19.6 ± 3.86 µM
reduction of tumor volume ([2]; 5-FU series, 50 mg/kg i.p. once every 3 days for 3 weeks): 67%
tumor suppression (tumor area), in words ([2]; 5-FU series, i.p. once every three days for three weeks, compound 7 and 5-FU 50 mg/kg, 5-FU 10 mg/kg + compound 17 30 mg/kg): better tumor suppression than 5-FU
IC50 (NHDF): 90 ± 2.6 µM
plasma concentration of compound 7 after 5 min, in words ([3]; i.p. 50 mg/kg): below the detection limit
plasma concentration of 5-FU after 2 h, in words ([3]; i.p. injection): undetectable
T. of 5-FU ([3]; i.p. injection, 5-FU measured in plasma): 45 min
time within which 5-FU released from compound 7 was detected in blood ([3]; i.v. 50 mg/kg): ≤ 2 h
plasma concentration of compound 7 after 30 min, in words ([3]; i.v. 50 mg/kg, lower detection limit=0.003 μg/mL, detectable again after 45 min and 4 h): undetectable
organ distribution of the compound, in words ([4]; 50 mg/kg): distributed in the stomach, colon, heart, and liver
organ distribution of 5-FU, in words ([4]; compound 7 50 mg/kg, free 5-FU 9.5 mg/kg): detected mainly in colon, with small amounts in the kidney and stomach
body weight change, in words [5]: without body weight loss; also recorded: no significant change in the body weight
half-life in human plasma [6]: 13 h

CCc1c2c(nc3ccc(OC(=O)N4CCC(N5CCCCC5)CC4)cc13)-c1cc3c(c(=O)n1C2)COC(=O)[C@]3(O)CC [Irinotecan (39), irinotecan, reference compound]
IC50 (HCT-116; Homo sapiens, HCT-116, read-out: IC50 HCT-116 5 mM GSH, 72 h, prepared in DMA, 5 mM GSH): 0.32 ± 0.02 µM
IC50 (HCT-116; Homo sapiens, HCT-116, 48 h, prepared in DMSO, read-out: IC50 HCT-116): 3.69 ± 0.24 µM
IC50 (HCT-116; Homo sapiens, HCT-116, 72 h, prepared in DMA, w/o GSH, read-out: IC50 HCT-116 w/o GSH): 0.36 ± 0.01 µM
IC50 (HT-29; Homo sapiens, HT-29, 48 h, read-out: IC50 HT-29): 8.51 ± 1.86 µM
IC50 (HT-29; [10]): 6.44 ± 0.3 µM
IC50 (HT-29; [11]): 5.61 ± 0.11 µM
IC50 ([7]; Homo sapiens, HCT-116 and HT-29, over Tables 1 to 3, read-out: IC50 in CRC cells): 0.3 to 8.5 µM
response rate [8]: about 27%

CCc1c2c(nc3ccc(OC(=O)OCCSSCCOCCOCCOc4ccc(O)c(C(=O)CCc5ccc(O)cc5)c4O)cc13)-c1cc3c(c(=O)n1C2)COC(=O)[C@]3(O)CC [Compound 31, (S)-4,11-diethyl-4-hydroxy-3,14-dioxo-3,4,12,14-tetrahydro-1H-pyrano[3′,4′:6,7]indolizino[1,2-b]quinolin-9-yl(2-((2-(2-(2-(2,4-dihydroxy-3-(3-(4-hydroxyphenyl)propanoyl)phenoxy)ethoxy)eyhoxy)ethyl)disulfanyl)ethyl) carbonate]
IC50 (HCT-116; 72 h, prepared in DMA, w/o GSH, read-out: IC50 HCT-116 w/o GSH): 0.00287 ± 0.00019 µM
IC50 (HCT-116; read-out: IC50 HCT-116 5 mM GSH, 72 h, prepared in DMA, 5 mM GSH): 0.00259 ± 0.00012 µM
degraded after 48 h ([1]; 0 and 5 μM GSH, 48 h): 10%
degraded to SN-38 after 48 h ([1]; 5 mM GSH, 48 h): over 90%
IC50 (HT-29; read-out: IC50 HT-29 5 mM GSH, 48 h, prepared in DMA, 5 mM GSH): 0.0114 ± 0.00103 µM
IC50 (HT-29; read-out: IC50 HT-29 w/o GSH, 48 h, prepared in DMA, w/o GSH): 0.0163 ± 0.00131 µM
reduction of tumor volume ([2]; SN-38 series, 20 mg/kg i.p. once every two days for two weeks): 70%
anti-tumor efficacy (tumor area), in words ([2]; SN-38 series, i.p. once every two days for two weeks, 20 mg/kg, irinotecan 20 mg/kg + compound 17 14 mg/kg): better anti-tumor efficacy than irinotecan
body weight change, in words [5]: did not decrease the body weight; also recorded: no significant change in the body weight
half-life in human plasma [6]: 0.833 h
cytotoxicity against CRC cell lines, in words [7]: less or similar cytotoxicity

O=C(CCc1cn(CCOCCOCCOc2cc(O)c(C(=O)CCc3ccc(O)cc3)c(O)c2)nn1)OCn1cc(F)c(=O)[nH]c1=O [Compound 9]
IC50 (HCT-116; [9]): > 100 µM
release of 5-FU, in words ([1]; 5 mM GSH, after 48 h): Little 5-FU was released
IC50 (HT-29; [11]): 85 ± 9.1 µM
half-life [6]: 3.6 h
cytotoxicity against CRC cell lines, in words [7]: poorly cytotoxic
pH stability, in words (pH stability analysis; pH 4-5): stable
pH stability, in words (pH stability analysis; pH >7): prone to fully degrade

Reference: patent US12458702B2 (NATIONAL TAIWAN UNIVERSITY, priority 2022, dated 2025)
